# Residue numbers refer to the chain shown, from its start. Names and notes keep the numbering of the source.
# T1: GltPh (Pyrococcus horikoshii, UniProt O59010)
# T1 sequence (O59010 1-417 limits assumed): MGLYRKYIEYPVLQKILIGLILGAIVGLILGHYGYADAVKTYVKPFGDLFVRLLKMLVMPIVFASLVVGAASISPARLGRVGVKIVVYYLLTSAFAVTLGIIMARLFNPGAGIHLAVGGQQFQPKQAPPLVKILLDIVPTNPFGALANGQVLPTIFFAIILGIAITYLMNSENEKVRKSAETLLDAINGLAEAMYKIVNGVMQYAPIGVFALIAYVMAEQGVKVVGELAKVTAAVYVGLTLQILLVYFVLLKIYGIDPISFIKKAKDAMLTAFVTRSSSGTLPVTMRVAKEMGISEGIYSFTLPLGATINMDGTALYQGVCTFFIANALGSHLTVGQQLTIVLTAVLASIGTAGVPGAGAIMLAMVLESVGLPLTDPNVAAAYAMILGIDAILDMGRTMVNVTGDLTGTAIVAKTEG
# T2: semisynthetic GltPh (Pyrococcus horikoshii, UniProt O59010, M385C)
# T2 sequence (O59010 1-417 M385C limits assumed): T1 sequence (O59010 1-417 limits assumed) with M385C
# B1: semisynthetic GltPh transporter (wild type sequence, M385C at the ligation site) (natural protein, Pyrococcus horikoshii)
# chain: MGLYRKYIEYPVLQKILIGLILGAIVGLILGHYGYADAVKTYVKPFGDLFVRLLKMLVMPIVFASLVVGAASISPARLGRVGVKIVVYYLLTSAFAVTLGIIMARLFNPGAGIHLAVGGQQFQPKQAPPLVKILLDIVPTNPFGALANGQVLPTIFFAIILGIAITYLMNSENEKVRKSAETLLDAINGLAEAMYKIVNGVMQYAPIGVFALIAYVMAEQGVKVVGELAKVTAAVYVGLTLQILLVYFVLLKIYGIDPISFIKKAKDAMLTAFVTRSSSGTLPVTMRVAKEMGISEGIYSFTLPLGATINMDGTALYQGVCTFFIANALGSHLTVGQQLTIVLTAVLASIGTAGVPGAGAIMLAMVLESVGLPLTDPNVAAAYACILGIDAILDMGRTMVNVTGDLTGTAIVAKTEGTGSG
# Columns and labels:
# [1] = target: T1, GltPh; test: […]-Asp uptake into proteoliposomes; assay type: biochemical; conditions: read-out: % inhibition at 10 μM
# [2] = target: T2, semisynthetic GltPh; test: […]-Asp uptake into proteoliposomes; assay type: biochemical; conditions: read-out: % inhibition at 10 μM
# [3] = target: the molecule itself; test: cross-linking
Molecule,inhibition at 10 µM [1],inhibition at 10 µM [2],stoichiometry N [3]
NC(C(=O)O)C(OCc1ccccc1)C(=O)O (racemic) [TBOA],31 ± 10%,42 ± 4%,
B1,,,3
